Assay results taken from patent US20090143279A1 (priority 2007, published 2009).
Counter-ions that a name gives are not always drawn. Like-named read-outs stand apart in the source and are kept apart here.

What was measured:
reactive oxygen species = format: cell-based, mouse; settings: for ROS (composite Z-score): normalized score vs mock-treated (DMSO) wells
[1] = system: cellular dehydrogenase activity; settings: for MTT (composite Z-score): normalized score vs mock-treated (DMSO) wells
cytochrome c = format: cell-based, mouse; settings: for cyt c (composite Z-score): normalized score vs mock-treated (DMSO) wells
OXPHOS gene expression = format: cell-based, mouse; settings: for GE-HTS (composite Z-score): normalized score vs mock-treated (DMSO) wells
nuOXPHOS transcripts = format: cell-based, mouse; settings: for nucOX (composite Z-score): normalized score vs mock-treated (DMSO) wells
mtOXPHOS transcripts = format: cell-based, mouse; settings: for mitoOX (composite Z-score): normalized score vs mock-treated (DMSO) wells
[2] = system: mitochondrial membrane potential; format: cell-based, mouse; settings: for ΔΨm (composite Z-score): normalized score vs mock-treated (DMSO) wells
C2C12 myotubes = settings: for Viability (composite Z-score): normalized score vs mock-treated (DMSO) wells
[3] = composite Z-score vs DMSO, Conc 20 μM
[4] = 20 μM, composite Z-score vs DMSO
[5] = composite Z-score vs DMSO wells, Conc 20 μM
[6] = 15.02 μM, composite Z-score vs DMSO

| Structure (SMILES) | ROS (reactive oxygen species; [3]) | MTT [1, 3] | cyt c (cytochrome c; [3]) | GE-HTS (OXPHOS gene expression; [3]) | nucOX (nuOXPHOS transcripts; [3]) | mitoOX (mtOXPHOS transcripts; [3]) | ΔΨm [2, 3] | Viability (C2C12 myotubes; [3]) | ROS (reactive oxygen species; [4]) | MTT [1, 4] | cyt c (cytochrome c; [4]) | GE-HTS (OXPHOS gene expression; [4]) | nucOX (nuOXPHOS transcripts; [4]) | mitoOX (mtOXPHOS transcripts; [4]) | ΔΨm [2, 4] | Viability (C2C12 myotubes; [4]) | further results |
| --- | --- | --- | --- | --- | --- | --- | --- | --- | --- | --- | --- | --- | --- | --- | --- | --- | --- |
| CCN(CCCc1ccccc1)CCCc1ccccc1 [alverine citrate] | 1.116 | −0.018 | −0.433 | −0.238 | −0.098 | −0.442 | 0.433 | 0.885 | – | – | – | – | – | – | – | – | – |
| CCN(CC)Cc1cc(Nc2ccnc3cc(Cl)ccc23)ccc1O [amodiaquine] | – | – | – | – | – | – | – | – | 0.877 | −1.008 | −0.008 | 0.398 | 0.317 | 0.481 | −1.178 | −0.547 | – |
| COc1cc2c3cc1Oc1c(OC)c(OC)cc4c1[C@@H](Cc1ccc(O)c(c1)Oc1ccc(cc1)C[C@@H]3N(C)CC2)N(C)CC4 [berbamine] | 0.153 | −1.021 | 0.445 | −0.345 | −0.166 | −0.636 | −0.289 | −1.126 | – | – | – | – | – | – | – | – | – |
| CC1(C)S[C@@H]2[C@H](NC(=O)COc3ccccc3)C(=O)N2[C@H]1C(=O)O [penicillin V] | – | – | – | – | – | – | – | – | 0.748 | −1.319 | 0.258 | −0.849 | −0.844 | −0.654 | −0.564 | 0.062 | – |
| CC(=O)N[C@H]1[C@H]([C@@H](O)[C@@H](O)CO)O[C@@](O)(C(=O)O)C[C@@H]1O [N-acetylneuramic acid] | – | – | – | – | – | – | – | – | – | – | – | – | – | – | – | – | ROS (reactive oxygen species; [5]): 0.063; MTT [1, 5]: −0.118; cyt c (cytochrome c; [5]): −0.254; GE-HTS (OXPHOS gene expression; [5]): 1.061; nucOX (nuOXPHOS transcripts; [5]): 1.111; mitoOX (mtOXPHOS transcripts; [5]): 0.813; ΔΨm [2, 5]: 0.053; Viability (C2C12 myotubes; [5]): 1.009 |
| COc1cc2c3cc1Oc1cc(ccc1O)CC1c4c(cc(OC)c(O)c4Oc4ccc(cc4)CC3N(C)CC2)CCN1C (centres unmarked) [bebeerine] | – | – | – | – | – | – | – | – | – | – | – | – | – | – | – | – | ROS (composite Z-score) (reactive oxygen species; Conc 20 μM): 0.759; MTT (composite Z-score) ([1]; Conc 20 μM): −1.681; cyt c (composite Z-score) (cytochrome c; Conc 20 μM): 0.389; GE-HTS (composite Z-score) (OXPHOS gene expression; Conc 20 μM): −0.005; nucOX (composite Z-score) (nuOXPHOS transcripts; Conc 20 μM): −0.028; mitoOX (composite Z-score) (mtOXPHOS transcripts; Conc 20 μM): 0.119; ΔΨm (composite Z-score) ([2]; Conc 20 μM): −0.800; Viability (composite Z-score) (C2C12 myotubes; Conc 20 μM): −0.728 |
| CNC[C@H](O)c1cccc(O)c1 [phenylephrine] | – | – | – | – | – | – | – | – | – | – | – | – | – | – | – | – | ROS (reactive oxygen species): 0.474; MTT [1]: 1.105; cyt c (cytochrome c): −0.187; GE-HTS (OXPHOS gene expression): 0.254; nucOX (nuOXPHOS transcripts): 0.120; mitoOX (mtOXPHOS transcripts): 0.536; ΔΨm [2]: −0.460; Viability (C2C12 myotubes): −0.349 |
| CC(C)(C)NCC(O)c1ccccc1Cl (centres unmarked) [tulobuterol] | – | – | – | – | – | – | – | – | 0.569 | −0.706 | 0.326 | −0.101 | −0.257 | 0.258 | −1.186 | −0.239 | – |
| C[C@@]12CCc3occc3[C@H]1CC[C@@]13C[C@@H](CC[C@H]12)[C@@](O)(CO)C3 [cafestol] | 0.832 | 1.124 | 1.374 | −0.833 | −0.385 | −1.543 | 1.283 | 0.025 | – | – | – | – | – | – | – | – | – |
| COc1ccc(-c2c(OC)c3c(OC)c4c(cc3oc2=O)OC(C)(C)C=C4)cc1 [robustic acid methyl ether, reference compound] | – | – | – | – | – | – | – | – | – | – | – | – | – | – | – | – | ROS (composite Z-score) (reactive oxygen species; Conc 20 μM): 1.431; MTT (composite Z-score) ([1]; Conc 20 μM): 0.474; cyt c (composite Z-score) (cytochrome c; Conc 20 μM): 0.679; GE-HTS (composite Z-score) (OXPHOS gene expression; Conc 20 μM): 0.230; nucOX (composite Z-score) (nuOXPHOS transcripts; Conc 20 μM): 0.444; mitoOX (composite Z-score) (mtOXPHOS transcripts; Conc 20 μM): −0.223; ΔΨm (composite Z-score) ([2]; Conc 20 μM): 0.692; Viability (composite Z-score) (C2C12 myotubes; Conc 20 μM): 0.497 |
| C/C=C(/C(=C/C)c1ccc(O)cc1)c1ccc(O)cc1 [dienestrol] | – | – | – | – | – | – | – | – | −0.260 | −0.326 | −0.653 | −0.280 | −0.251 | −0.222 | 0.129 | 0.290 | ROS (reactive oxygen species; [6]): −0.210; MTT [1, 6]: −0.652; cyt c (cytochrome c; [6]): 0.894; GE-HTS (OXPHOS gene expression; [6]): 0.033; nucOX (nuOXPHOS transcripts; [6]): −0.191; mitoOX (mtOXPHOS transcripts; [6]): 0.481; ΔΨm [2, 6]: −0.205; Viability (C2C12 myotubes; [6]): 0.829 |
| C[C@H](N)[C@H](O)c1cccc(O)c1 [metaraminol] | 0.313 | −1.268 | 0.327 | −0.589 | −0.456 | −0.745 | −0.772 | 0.107 | – | – | – | – | – | – | – | – | – |
